In US10329304B2, “Compounds and methods for inhibition of hedgehog signaling and phosphodiesterase” (Vanderbilt University, priority 2014, dated 2019):

What was measured:
[1] = test system: Hedgehog signaling (Gli-Luc reporter); assay: Hh Gli-Luciferase reporter assay in Shh-Light2 cells; assay type: cell-based, mouse; details: for EC50: Mus musculus, Shh Light2, Table 9B, read-out: Shh Light2 Luc EC50
Procedure: For Hh signaling assays, Shh-Light2 cells stably transfected with Gli-Luciferase reporter construct were used along with Shh-conditioned media, as previously described^7. Alternatively, 3 μM purmorphamine or 20 nM Smoothened agonist (SAG) (Santa Cruz Biotechnology, Santa Cruz, Calif.) was used to induce Hh signaling. Reporter cells were seeded in 96-well plates and incubated overnight with the various concentrations of eggmanone and Shh-conditioned media. To assess the effects of overexpression of Gli-2, PDE4D3 and DN-PDE4D3 on Hh signaling, mammalian expression vectors containing these constructs were transfected into Shh-Light2 cells in 96-well plates using Fugene6 (Roche), according to manufacturer's instructions. The transfected or Shh-stimulated cells were incubated overnight with the various concentrations of compound. The cells were then lysed, and cell extracts were subjected to Steady-Glo luciferase assay (Promega) according to manufacturer's instructions. The results were normalized to cell titer, as determined using Cell Titer-Glo luminescence assay (Promega).

zebrafish embryos = assay: Zebrafish embryo phenotypic assay (ZF); assay type: in vivo; details: wild-type embryonic zebrafish, dosed 5 hpf
Procedure: All zebrafish experiments were approved by Vanderbilt University Institutional Animal Care and Use Committee. Wild-type zebrafish of AB strain were maintained using standard protocols. Chemical screen for small molecules was performed as previously described. Briefly, pairs of zebrafish were mated, and fertilized eggs were arrayed in 96-well microtiter plates (5 embryos/well) containing 250 μl E3 water. At ˜4-hpf, small molecule library from Vanderbilt High Throughput Screening Facility was added to each well to the final concentration of 5 μM. Embryos were incubated at 28.5° C. until 24 and 48-hpf, when they were examined for gross morphologic changes indicative of disruption in embryonic patterning. A total of ˜30,000 compounds were screened.
ZF refers to wild-type embryonic zebrafish phenotypic assay involving dosing n=˜10 embryos in E3 egg water with compound from either a stock of 1 mM or 10 mM in DMSO at 5 hours post-fertilization and observing at 24, 48, and 72 hours post-fertilization.

Gli1 mRNA = assay: Hh % Inh.: SAG-induced Gli1 expression in C3H10T½ cells (qPCR); assay type: cell-based; details: Mus musculus, C3H 10T1/2, SAG-induced (100 nM), 24 hours; for inhibition at 1 µM: 1 pM [sic], read-out: C3H10T1/2 qPCR, Gh1 mRNA % Inh., 1 pM; for inhibition at 10 µM: 10 pM [sic], read-out: C3H10T1/2 qPCR, Gh1 mRNA % Inh., 10 pM
Procedure: Compounds are dosed from 10 mM DMSO stock solutions, and mRNA is isolated after 24 hours of compound treatment. mRNA is reverse transcribed to produce cDNA which is quantified by quantitative polymerase chain reaction (qPCR) in triplicate and levels are normalized to GAPDH levels. Data is presented as percent inhibition compared to positive control (SAG).

[2] = test system: Hedgehog signaling (TM3-Gli-Luc); assay: TM3-Gli-Luc luciferase reporter assay stimulated with 20 nM SAG; assay type: cell-based; details: Table 9A; read-out: TM3 G8 Luciferase EC 50
Procedure: TM3-Gli-Luc cells were maintained on sterile 0.1% gelatin (from porcine skin, Type A, prepared in MilliQ water, autoclaved, then sterile-filtered) in 1:1 Dulbecco's Modified Eagle Medium (DMEM)/F12 supplemented with 5% horse serum, 2.5% fetal bovine serum (FBS), and 15 mM HEPES, hereafter referred to as TM3 Culture Medium. For small molecule evaluation, TM3-Gli-Luc cells were assayed on 0.1% gelatin in DMEM/F12 supplemented with 2.5% FBS and 15 mM HEPES, hereafter referred to as TM3Luc Medium. Sufu^−/− cells were maintained in DMEM supplemented with 4.5 g/L D-glucose, L-glutamine, 25 mM HEPES, and 10% FBS, hereafter referred to as D10 FBS. For small molecule evaluation, Sufu^−/− cells were assayed in DMEM supplemented with 4.5 g/L D-glucose, L-glutamine, 25 mM HEPES, and 0.5% FBS, hereafter referred to as D0.5 FBS. All cells were cultured at 37° C. with a 5% CO2 atmosphere.
On the day of cell plating, 96-well plates were coated with 50 μL/well of sterile 0.1% gelatin for 5 minutes then aspirated and replaced with 50 μL/well of TM3 Culture Medium. TM3-Gli-Luc cells were seeded at a density of 5,000 cells/well in TM3 Culture Medium and incubated for 24 hours. A master mix of 20 nM SAG in TM3Luc Medium was prepared, and small molecule solutions were prepared by adding the desired amount of compound from 10 mM DMSO stock to TM3Luc Medium containing 20 nM SAG. Negative control was prepared by adding an equi-volume amount of DMSO as compared to small molecule treated conditions to TM3Luc Medium not containing SAG. Cell plating medium was aspirated and replaced with 100 μL/well of prepared small molecule-containing media, and plates were incubated for 48 hours before proceeding to luciferase activity and cell viability reading.
TM3Luc Medium from compound treated plates was aspirated and replaced with 82 μL/well of Glo Lysis Buffer (Promega, Madison, Wis., USA), and plates were shaken at 300 rpm and room temperature for 12 minutes. Lysate was split between two white 96-well plates, 45 μL/well and 25 μL/well for luciferase reading and cell viability respectively. For luciferase activity monitoring, 45 μL/well of Steady Glo (Promega, Madison, Wis., USA) was added to 45 μL/well of cell lysate, incubated at room temperature for 5 minutes, then luminescence was measured on a Turner Biosystems Modulus Microplate Reader (Sunnyvale, Calif., USA) with an integration time of 0.5 seconds. For cell viability measurement, 25 μL/well of Cell Titer Glo (Promega, Madison, Wis., USA) (prepared by 1:10 dilution with Glo Lysis Buffer) was added to 25 μL/well of cell lysate, incubated at room temperature for 5 minutes, then luminescence was measured as above.
Luciferase activity data (Steady Glo) was divided by corresponding cell viability data (Cell Titer Glo) to arrive at a live cell number-normalized luciferase activity reading. The average of negative control data (DMSO treated) was subtracted from all wells, and percent activity was calculated by dividing all wells by the positive control (SAG treated) average. […] At least two independent assays tested on separate days were averaged to provide EC50±standard error of the mean.

PDE4D3 = target: T1, PDE4D3 (Homo sapiens, UniProt Q08499); assay: In vitro PDE assay; assay type: biochemical; details: Table 9A
T1 construct: purchased BPS Biosciences (San Diego, Calif.); kinetic studies by Millipore (St. Louis, Mo.)
Procedure: In vitro PDE profiling and dose-response assays were performed by BPS Biosciences (San Diego, Calif.). Kinetic Mechanism of inhibition studies were conducted by Millipore (St. Louis, Mo.). In brief, the PDE assay measures fluorescent polarization of FAM-AMP as FAM-cAMP is converted to FAM-AMP by PDE), the binding agent.
A series of dilutions of the test compound were prepared with 10% DMSO in assay buffer and 5 μl of the dilution was added to a 50 μl reaction so that the final concentration of DMSO is 1% in all of reactions. All of the PDE enzymatic reactions were conducted in duplicate at room temperature for 60 minutes in a 50 μl mixture containing PDE assay buffer (10 mM Tris-HCl, pH7.4, 10 mM MaCl2, 0.05% Tween 20), 100 nM FAM-cAMP, a PDE enzyme and a test compound.
After the enzymatic reaction, 100 μl of a binding solution (1:100 dilution of the binding agent, which contains the nano beads that recognize FAM-AMP, with the binding agent diluent) was added to each reaction and the reaction was performed at room temperature for 60 minutes. Fluorescence intensity was measured at an excitation of 485 nm and an emission of 528 nm using a Tecan Infinite M1000 microplate reader. Assays done by Millipore were conducted similarly with changes noted below: […]

T1 sequence (Q08499 1-673 isoform Q08499-2): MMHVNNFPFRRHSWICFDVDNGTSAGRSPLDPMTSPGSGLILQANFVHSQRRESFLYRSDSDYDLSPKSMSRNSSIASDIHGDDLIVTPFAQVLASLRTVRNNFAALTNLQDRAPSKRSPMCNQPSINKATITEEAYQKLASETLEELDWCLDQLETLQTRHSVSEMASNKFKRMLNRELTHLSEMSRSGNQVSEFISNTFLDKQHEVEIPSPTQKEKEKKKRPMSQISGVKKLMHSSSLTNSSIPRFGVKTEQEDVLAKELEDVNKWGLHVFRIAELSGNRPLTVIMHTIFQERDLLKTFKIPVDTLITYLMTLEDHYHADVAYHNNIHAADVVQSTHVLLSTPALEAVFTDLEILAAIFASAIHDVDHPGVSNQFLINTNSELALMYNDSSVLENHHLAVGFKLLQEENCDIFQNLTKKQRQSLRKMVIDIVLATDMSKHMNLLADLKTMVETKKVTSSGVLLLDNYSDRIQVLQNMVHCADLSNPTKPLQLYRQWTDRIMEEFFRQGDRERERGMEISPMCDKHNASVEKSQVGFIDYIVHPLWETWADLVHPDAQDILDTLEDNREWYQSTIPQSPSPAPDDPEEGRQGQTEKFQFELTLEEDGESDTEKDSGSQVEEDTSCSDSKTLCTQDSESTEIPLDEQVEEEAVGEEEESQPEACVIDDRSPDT

C=CCn1c(SCC(=O)c2ccc(-c3ccccc3)cc2)nc2sc3c(c2c1=O)CCCC3 [Formula (20)]
Hh Inhibition Assay (EC50, μM) ([1]; Table 8): Inactive

C=C(C)Cn1c(SC)nc2sc3c(c2c1=O)CCCC3 [HI272]
EC50 [1]: > 10 µM

CCn1c(SCC(=O)c2ccccc2)nc2sc3c(c2c1=O)CCC3 [HI598]
EC50 [1]: > 10 µM

C=CCn1c(SCC(=O)c2ccc(C)cc2)nc2sc3c(c2c1=O)CCCC3 [HI612]
EC50 [1]: > 10 µM

C=CCn1c(SCC(=O)c2ccc(F)cc2)nc2sc3c(c2c1=O)CCCC3 [HI682]
EC50 [1]: > 10 µM

CCn1c(SCC(=O)c2ccccc2)nc2sc(C)c(C)c2c1=O [HI864]
EC50 [1]: > 10 µM

C=CCn1c(SCC(=O)O)nc2sc3c(c2c1=O)CCCC3 [HI918]
EC50 [1]: > 10 µM

CCn1c(SCC(=O)c2ccc(Br)cc2)nc2sc3c(c2c1=O)CCC3 [HI2863]
EC50 [1]: > 10 µM

C=C(C)Cn1c(SCC(=O)c2cccs2)nc2sccc2c1=O [JEH-1-054]
ZF Phenotype EC100 (zebrafish embryos): >50 µM | inhibition at 1 µM (Gli1 mRNA): 19.6% | inhibition at 10 µM (Gli1 mRNA): 50.4% | EC50 [2]: 1.1 µM

C=C(C)Cn1c(SCC(=O)c2cccs2)nc2sc3c(c2c1=O)CCNC3 [JEH-1-064]
ZF Phenotype EC100 (zebrafish embryos): >50 µM | inhibition at 10 µM (Gli1 mRNA): 64.1% | EC50 [2]: 7.06 µM

C=C(C)Cn1c(SCC(=O)c2cccs2)nc2ccccc2c1=O [JEH-1-146-1]
ZF Phenotype EC100 (zebrafish embryos): 10 µM | inhibition at 10 µM (Gli1 mRNA): 68.9% | EC50 [2]: > 50 µM

C=C(C)Cn1c(SCC(=O)c2cccs2)nc2ncccc2c1=O [JEH-1-146-2]
ZF Phenotype EC100 (zebrafish embryos): >50 µM | inhibition at 10 µM (Gli1 mRNA): 28.7% | EC50 [2]: 11.2 µM

O=C(CSc1nc2sc3c(c2c(=O)n1C1CC1)CCCC3)c1ccncc1 [JEH-1-163-2]
ZF Phenotype EC100 (zebrafish embryos): >50 µM | EC50 [2]: 3.79 µM

Cc1ccc(CSc2nc3sccc3c(=O)n2C2CC2)cc1 [JEH-1-190-3]
ZF Phenotype EC100 (zebrafish embryos): >50 µM | EC50 [2]: 5.01 µM

O=C(CSc1nc2sccc2c(=O)n1CC1CC1)c1cccnc1 [JEH-2-022-2]
ZF Phenotype EC100 (zebrafish embryos): 25 µM | EC50 [2]: 3.16 µM

O=C(CSc1nc2ccsc2c(=O)n1C1CC1)c1cccs1 [JEH-2-069-2]
ZF Phenotype EC100 (zebrafish embryos): 48 µM | EC50 [2]: 1.11 µM

C=C(C)Cn1c(SCC(=O)c2cccs2)nc2cnccc2c1=O [JEH-2-088]
inhibition at 10 µM (Gli1 mRNA): 24.2% | EC50 [2]: 14.1 µM

C=C(C)Cn1c(SCC(=O)c2cccs2)nc2sc3c(c2c1=O)CCN(C(=O)c1ccco1)C3 [JEH-2-105]
inhibition at 10 µM (Gli1 mRNA): 54.9%

C=C(C)Cn1c(SCC(=O)c2cccs2)nc2sc3c(c2c1=O)CCOC3 [JEH-2-120-1]
inhibition at 10 µM (Gli1 mRNA): 82.9% | EC50 [2]: 30.2 µM

CC(C)n1c(SCC(=O)c2cccs2)nc2sc3c(c2c1=O)CCCC3 [JEH-3-031]
inhibition at 1 µM (Gli1 mRNA): 11.7% | inhibition at 10 µM (Gli1 mRNA): 101%

CC(C)Cn1c(SCC(=O)c2cccs2)nc2sc3c(c2c1=O)CCCC3 [JEH-3-038-2]
inhibition at 1 µM (Gli1 mRNA): 27.8% | inhibition at 10 µM (Gli1 mRNA): 102%

CC(C)(O)Cn1c(SCC(=O)c2cccs2)nc2sc3c(c2c1=O)CCCC3 [JEH-3-038-3]
inhibition at 1 µM (Gli1 mRNA): 24.4% | inhibition at 10 µM (Gli1 mRNA): 14.8%

O=C(CSc1nc2sc3c(c2c(=O)n1CC1CC1)CCCC3)c1cccs1 [JEH-3-039-1]
IC50 (PDE4D3): 1 µM | inhibition at 1 µM (Gli1 mRNA): -3.3% | inhibition at 10 µM (Gli1 mRNA): 81.6% | EC50 [2]: 2.96 µM

C=C(C)Cn1c(SCC(=O)c2cccnc2)nc2sc3c(c2c1=O)CCCC3 [JEH-3-045-3]
inhibition at 10 µM (Gli1 mRNA): 43.6% | EC50 [2]: 10.5 µM

O=C(CSc1nc2sc3c(c2c(=O)n1CC1CCC1)CCCC3)c1cccs1 [JEH-3-056-1]
ZF Phenotype EC100 (zebrafish embryos): 1 µM | inhibition at 1 µM (Gli1 mRNA): 14.7% | inhibition at 10 µM (Gli1 mRNA): 67.2% | EC50 [2]: 7.08 µM

CC(C)(C)Cn1c(SCC(=O)c2cccs2)nc2sc3c(c2c1=O)CCCC3 [JEH-3-056-2]
inhibition at 1 µM (Gli1 mRNA): 13.1% | inhibition at 10 µM (Gli1 mRNA): 84.8%

O=C(CSc1nc2sc3c(c2c(=O)n1Cc1ccccc1)CCCC3)c1cccs1 [JEH-3-058-2]
inhibition at 10 µM (Gli1 mRNA): 18.3%

C=C(C)Cn1c(SCC(=O)N2CCCC(C)C2)nc2sc3c(c2c1=O)CCCC3 (stereo not shown) [JEH-3-120-1]
inhibition at 1 µM (Gli1 mRNA): 28.7% | inhibition at 10 µM (Gli1 mRNA): 106%

C=C(C)Cn1c(SC)nc2sc3c(c2c1=O)CCCC3 [JEH-3-146]
inhibition at 1 µM (Gli1 mRNA): 48.4% | inhibition at 10 µM (Gli1 mRNA): 83.9% | EC50 [2]: 23.9 µM

O=C(CSc1nc2sc3c(c2c(=O)n1C1CC1)CCNC3)c1ccccc1 [KYK-1-57]
ZF Phenotype EC100 (zebrafish embryos): >50 µM | EC50 [2]: 8.55 µM

O=C(CSc1nc2sc3c(c2c(=O)n1C1CC1)CCN(C(=O)c1ccco1)C3)c1ccccc1 [KYK-1-75]
ZF Phenotype EC100 (zebrafish embryos): >50 µM | IC50 (PDE4D3): 6.4 µM | EC50 [2]: 3.59 µM

CN1CCc2c(sc3nc(SCC(=O)c4ccccc4)n(C4CC4)c(=O)c23)C1 [KYK-1-76]
ZF Phenotype EC100 (zebrafish embryos): >50 µM | EC50 [2]: 5.13 µM

CCCN1CCc2c(sc3nc(SCC(=O)c4ccccc4)n(C4CC4)c(=O)c23)C1 [KYK-1-100]
ZF Phenotype EC100 (zebrafish embryos): >50 µM | EC50 [2]: 4.67 µM
